{
  "source": "patent US20240158447A1",
  "about": "“PEPTIDES FOR USE IN THE TREATMENT OR PREVENTION OF MYOCARDIAL DAMAGE” (THE UNIVERSITY OF WESTERN AUSTRALIA, priority 2020, published 2024)",
  "key": {"[1]": {"tested_on": "cTnI-G203S mutant myocytes", "experiment": "Flavoprotein oxidation response to BayK(−), cTnI-G203S myocytes (Example 10)", "type": "cell-based, mouse", "settings": "0.5 μM peptide, 10 μM BayK(−), FIG. 10D", "procedure": "In this experiment wt myocytes were pre-exposed to 0.1, 0.5 or 1 μM for 20 min and assessed changes in flavoprotein oxidation and ψm.\nMeasurement of mitochondrial flavoprotein oxidation: Flavoprotein autofluorescence was used to measure flavoprotein oxidation based on previously described methods (Yaniv Y, Juhaszova M, Lyashkov A E, Spurgeon H A, Sollott S J, Lakatta E G. Ca2+-regulated-cAMP/PKA signaling in cardiac pacemaker cells links ATP supply to demand. J Mol Cell Cardiol. 2011; 51(5):740-8). […] Fluorescent images were acquired at 1 min intervals with 200 ms exposure. Metamorph 6.3 (Version 7.10.3) was used to quantify the signal by manually tracing myocytes. […] Fluorescence values recorded over 5 min before and 5 min after addition of drugs were averaged and alterations in fluorescent ratios reported as the percentage increase from the basal average. FCCP (50 μM) and NaCN (40 mM) was added at the end of each experiment to achieve a respective maximal and minimal fluorescence value indicative of maximal and minimal flavoprotein oxidation.\nThe ICA-L agonist BayK(−) was used to activate the channel and assess mitochondrial function. […] FIG. 10 presents the mean+/−SEM of flavoprotein fluorescence from cTnI.2 wt and cTnI-G2035 mutant myocytes before and after exposure to 10 μM BayK(−) in the presence of 1 μM AID(S)-TAT, and increasing concentrations of variant peptides as indicated. […]"}, "[2]": {"tested_on": "cTnI-G203S mice", "experiment": "Echocardiography of pre-cardiomyopathic cTnI-G203S mice (Example 15)", "type": "in vivo, mouse", "settings": "5 μM, 3×/wk/5 wk, FIG. 15", "source_text": "Twenty to thirty week-old male mice expressing the human cTnI gene encoding the human disease-causing cTnI-G203S were generated and used for the in vivo studies. By way of background, the mice develop hallmark features of HCM between 20 and 25 weeks (Viola H, Johnstone V, Cserne Szappanos H, Richman T, Tsoutsman T, Filipovska A, et al. The L-type Ca(2+) channel facilitates abnormal metabolic activity in the cTnI-G2035 mouse model of hypertrophic cardiomyopathy. J Physiol. 2016; 594(14):4051-70; Viola H M, Shah A A, Johnstone V P A, Cserne Szappanos H, Hodson M P, Hool L C. Characterization and validation of a preventative therapy for hypertrophic cardiomyopathy in a murine model of the disease. Proc Nati Aced Sci U S A. 2020; 117(37):23113-24; Tsoutsman T, Chung J, Doolan A, Nguyen L, Williams IA, Tu E, et al. Molecular insights from a novel cardiac troponin I mouse model of familial hypertrophic cardiomyopathy. J Mol Cell Cardiol. 2006; 41(4):623-32). Age-matched male mice expressing the normal human troponin I gene were used as controls and indicated as wild-type (wt). For in vivo studies, 20-week old cTnI-G203S mice were treated with 10 μM AID(S)-TAT (2 mg/kg) or 5 μM AID-TAT mutant peptides via intraperitoneal injection, 3 times per week for a total duration of 5 weeks. The peptide was dissolved in phosphate buffered saline solution (PBS), and the total amount of the 10 μM AID-TAT mutant peptides administered over 5 weeks was 0.9 mg. The total amount of the 5 μM AID-TAT mutant peptides administered over 5 weeks was 0.45 mg Male mice were utilized to eliminate potential differences in responses due to gender. The number of mice used is indicated by N.\nEchocardiographic studies to measure left ventricular function were performed on mice under light methoxyflurane anaesthesia with the use of an i13L probe on a Vivid™ 7 IQ ultrasound system (GE Healthcare, Little Chalfont, UK) as previously described (Viola H, Johnstone V, Cserne Szappanos H, Richman T, Tsoutsman T, Filipovska A, et al. The L-type Ca(2+) channel facilitates abnormal metabolic activity in the cTnI-G2035 mouse model of hypertrophic cardiomyopathy. J Physiol. 2016; 594(14):4051-70; Viola H M, Shah A A, Johnstone V P A, Cserne Szappanos H, Hodson M P, Hool L C. Characterization and validation of a preventative therapy for hypertrophic cardiomyopathy in a murine model of the disease. Proc Natl Acad Sci U S A. 2020; 117(37):23113-24; Viola H M, Johnstone V P A, Cserne Szappanos H, Richman T R, Tsoutsman T, Filipovska A, et al. The Role of the L-Type Ca(2+) Channel in Altered Metabolic Activity in a Murine Model of Hypertrophic Cardiomyopathy. JACC Basic Transl Sci. 2016; 1(1-2):61-72). Each N represents the average of quantitative measurements from wt or cTnI-G203S mice for each treatment group."}},
  "note": "Entries after “also recorded” stand apart in the source; their conditions may differ.",
  "data": [
    {"substance": "AIDP7-TAT: QQQEEDLKGYLDWITQAE with TAT sequence", "values": [
      {"measurement": "BayK(−) induced increase in flavoprotein oxidation", "setting": "[1]", "result": "significantly attenuated increases in flavoprotein oxidation resulting from BayK(−) exposure"},
      {"measurement": "IVDS", "setting": "[2]", "result": "trend toward increased LVEDd and LVEDs, and decreased IVDS"},
      {"measurement": "EF, ejection fraction", "setting": "[2]; versus AID(S)-TAT", "result": "effectively restored"},
      {"measurement": "FS, fractional shortening", "setting": "[2]; versus AID(S)-TAT", "result": "effectively restored"},
      {"measurement": "IVSs, intraventricular septum in systole", "setting": "[2]; versus AID(S)-TAT", "result": "significant decrease; also recorded: effectively restored"},
      {"measurement": "LVEDd, left ventricular end diameter during diastole", "setting": "[2]; versus AID(S)-TAT", "result": "trend toward increased LVEDd and LVEDs, and decreased IVDS"},
      {"measurement": "LVEDs, left ventricular end diameter during systole", "setting": "[2]; versus AID(S)-TAT", "result": "trend toward increased LVEDd and LVEDs, and decreased IVDS"},
      {"measurement": "LVPWd, left ventricular posterior wall in diastole", "setting": "[2]; versus AID(S)-TAT", "result": "effectively restored"},
      {"measurement": "LVPWs, left ventricular posterior wall in systole", "setting": "[2]; versus AID(S)-TAT", "result": "effectively restored; also recorded: significant decrease"}
    ]}
  ]
}
